Test results published in PubChem BioAssay AID1053153 (Broad Institute, 2014).

System: HepG2 + statin, PCSK9 mRNA qPCR, 24 h
Experiment: PCSK9 mRNA change in statin-treated cells, late-stage follow-up, mechanism study for Trib1 inducer project, cell-based, HepG2, RT-PCR, atorvastatin or simvastatin, cherry-pick (AID 1053153)

Compound | fold change
CN1C(=O)c2cc(NC(=O)c3ccc(C(F)(F)F)cc3)ccc2OC[C@@H]2O[C@@H](CC(=O)NC3Cc4ccccc4C3)CC[C@@H]21 | 10
CN1C(=O)c2cc(NC(=O)c3ccc(C(F)(F)F)cc3)ccc2OC[C@@H]2O[C@H](CC(=O)NC3Cc4ccccc4C3)CC[C@@H]21 | 2
